From patent US20120232046A1, “METHOD AND KIT FOR REDUCING THE SYMPTOMS OF PERIPHERAL VASCULAR DISEASE” (Dimera Incorporated, priority 2003, published 2012)

Tests used:
Assay type in all cases: cell-based, rhesus monkeys
[1] = system: isolated peripheral vascular muscle cells (VMC) from large arteries of the foreleg; assay: Averaged PKC signals in nicotine-stimulated VMC; settings: VMC pre-treated with wash of 4 ng/ml hormone, 10 μM nicotine; for peripheral-to-central PKC ratio: versus control; for change of PKC loci or intensity after nicotine stimulation: versus control values
Description: (§1) Single VMCs from large arteries of the foreleg of adult rhesus monkeys are isolated and studied both as freshly dispersed and as primary cultures. The short-term primary cultured cells (never passaged) maintain the characteristics of the source tissue for 2 to 3 weeks, including contraction, relaxation, receptors, and membrane electrical properties. VMCs are dissociated with collagenase and protease enzymes in a potassium glutamate solution (KG) that prevents loading with Na^+, Ca^2′, or Cl^− and results in a high proportion of viable, contracting cells. See, Self, D. A., et al., J. Vasc. Res. 31:359-366 (1994); and Rusch., N. J., et al., Physiology and Pathophysiology of the Heart, 999-1010 (1995), each of which is incorporated herein by reference. The cells prepared for culture are seeded at low density in cardiovascular culture solution for mammals, fifth generation (CV5M) on glass coverslips to facilitate selection of individual cells. VMCs are used for studies 7 to 14 days after attaching to coverslips.
(§2) Freshly dispersed or primary cultured VMCs on glass coverslips are placed in a chamber of laminar flow design and observed with a high numerical aperture water immersion objective. Ionic solution for mammals version 2 (ISM2) is continuously pumped through the chamber (at 1 ml/minute) to provide continuous equilibration and washout of drugs. After a 15 minutes equilibration period, VMC are loaded for 15 minutes at room temperature with 3 μM fluo 3 (Molecular Probes, Inc.) for sensing Ca^2+ and for 10 minutes with 30-100 nM hypericin (LC Laboratories) for reporting PKC. Individual VMC are stimulated by adding 20 μl of 10 μM nicotine over the individual cell. After 15 seconds under no-flow conditions, continuous flow of ISM2 was reinstated and a chamber volume of approximately 300 μl was maintained. Fluorescent images are taken at 1, 2, 5, 10, 15, 20 and 30 minutes after stimulation for Ca^2+ and at 3, 4, 9, 16, 21 and 31 minutes for PKC to evaluate subcellular distribution of these signals, and to determine VMC contraction.
(§3) ISM2 contains (in mM): 100 NaCl, 4 NaHCO3, 0.5 NaH2PO4, 4.7 KCl, 1.8 CaCl2, 0.41 […], 50 HEPES (pH 7.37), and 5.5 dextrose; KG solution contains (in mM); 140 K-glutamate, 16 NaHCO3, 0.5 NaH2PO4, 30 HEPES, and 16.5 dextrose at pH 7.3. CV5M contains: 4.0 mM L-glutamine, 10 μg/ml ciprofloxacin (Miles Pentex/Bayer Corporation), 50 mM HEPES (pH 7.3), and 16 mM NaHCO3 dissolved in 85% MEM-Earle's salts and 15% horse serum. Phenol red, known to have estrogenic activity, is omitted from all solutions.
One group of cells is pre-treated with a wash of 4 ng/ml of progesterone before stimulation with nicotine. A second group of cells is pre-treated with a wash of 4 ng/ml testosterone before stimulation. […]

[2] = system: isolated peripheral vascular muscle cells (VMC) from large arteries of the foreleg; assay: Averaged contractions (cell width) of nicotine-stimulated VMC; settings: primary cultured VMC pre-treated with wash of 4 ng/ml hormone, 10 μM nicotine; versus 0-min controls
Description: as §1
Freshly dispersed or primary cultured VMCs on glass coverslips are placed in a chamber of laminar flow design and observed with a high numerical aperture water immersion objective. […]
Normalized changes in cell widths from primary cultured VMC is determined.

[3] = system: isolated peripheral vascular muscle cells (VMC) from large arteries of the foreleg; assay: Averaged Ca2+ signals in nicotine-stimulated VMC; settings: VMC pre-treated with wash of 4 ng/ml hormone; for decrease in peripheral-to-central Ca2+ localization ratio / peak of Ca2+ increase after nicotine stimulation: 10 μM nicotine; for peak of Ca2+ increase after nicotine stimulation: versus non-treatment group; for whole cell Ca2+ response to nicotine stimulation: stimulated with 10 μM nicotine
Description: as §1, §2, §3
One group of cells is pre-treated with a wash of 4 ng/ml of progesterone before stimulation with nicotine. A second group of cells is pre-treated with a wash of 4 ng/ml testosterone before stimulation. A third group of cells, the “non-treatment group”, is pre-treated with a wash of normal saline before stimulation. A fourth group of cells, which forms the control group, is pre-treated with a wash of normal saline and followed by “stimulation” with normal saline.
Normalized (per pixel) changes in intracellular Ca^2+ levels are expressed as averages over whole VMC and as peripheral-to-central ratios. […] The ratio decreases because of Ca^2+ release from intracellular stores.

SMILES	peripheral-to-central PKC ratio [1]	change of PKC loci or intensity after nicotine stimulation [1]	VMC contractions (central cell widening) [2]	decrease in peripheral-to-central Ca2+ localization ratio [3]	peak of Ca2+ increase after nicotine stimulation [3]	whole cell Ca2+ response to nicotine stimulation [3]
CC(=O)[C@H]1CC[C@H]2[C@@H]3CCC4=CC(=O)CC[C@]4(C)[C@H]3CC[C@]12C [progesterone]	never significantly different from control	fails to change PKC loci or intensity significantly from control values	significantly different from 0-min controls only in the first few minutes following stimulation	too small to be significant	smaller peak than in the non-treatment group	only transiently stimulated by nicotine
C[C@]12CC[C@H]3[C@@H](CCC4=CC(=O)CC[C@@]43C)[C@@H]1CC[C@@H]2O [testosterone]	never significantly different from control	fails to change PKC loci or intensity significantly from control values	significantly different from 0-min controls only in the first few minutes following stimulation	too small to be significant	smaller peak than in the non-treatment group	only transiently stimulated by nicotine
